Literature values, collected in Sander's compilation of Henry's law constants.
Values joined by “and” are separate entries in the source; they are usually repeats but may differ in a detail not shown here. Equal values may be shown once. Each block holds one molecule with its values, some of them ahead of it.

Test: Henry solubility constant Hcp at 298.15 K (mol/(m3 Pa))
Conditions: cited value
[1] = reference: Mackay et al. (1992b)
[2] = reference: Wania and Dugani (2003)
[3] = reference: Barcelo and Hennion (1997)
[4] = reference: Burkholder et al. (2015)
[5] = reference: Burkholder et al. (2019)
[6] = reference: Pierotti et al. (1959)
[7] = reference: Sander et al. (2006)
[8] = reference: Sander et al. (2011)
[9] = reference: Meynier et al. (2003)
[10] = reference: Gaffney and Senum (1984)
[11] = reference: Fogg and Sangster (2003)

Henry solubility constant Hcp (reference: MacBean (2012b)): 1.5e+07
SMILES: CC(C)c1nn(C(=O)NC(C)(C)C)c(=O)n1N [amicarbazone]

SMILES: [Cl][Hg][Cl] [mercury dichloride]
Henry solubility constant Hcp (reference: Kanefke (2008)): 13000 | Henry solubility constant Hcp (reference: Lindqvist and Rodhe (1985)): 14000 | Henry solubility constant Hcp (reference: Shon et al. (2005)): 240000 | Henry solubility constant Hcp (reference: WHO (1990)): 14000

SMILES: CCCCCCI [1-iodohexane]
Henry solubility constant Hcp (reference: Brockbank (2013)): 0.00034

Henry solubility constant Hcp [1]: 330
SMILES: c1cc2cccc3c4cccc5cccc(c(c1)c23)c54 [perylene]

SMILES: Brc1ccc(Oc2ccc(Br)cc2Br)c(Br)c1 [2,2',4,4'-tetrabromodiphenyl ether]
Henry solubility constant Hcp [2]: 0.9

Henry solubility constant Hcp (reference: Brockbank (2013)): 3.2e-06
SMILES: CCCC(C)CC (stereo not drawn) [3-methylhexane]

SMILES: CC(C)Br [2-bromopropane]
Henry solubility constant Hcp (reference: Brockbank (2013)): 0.0009

Henry solubility constant Hcp (reference: Brockbank (2013)): 17
SMILES: OCCc1ccccc1 [2-phenylethanol]

Henry solubility constant Hcp (reference: Brockbank (2013)): 0.025
SMILES: CCC(C)C=O (stereo not drawn) [2-methylbutanal]

Henry solubility constant Hcp (reference: Brockbank (2013)): 0.0027
SMILES: Cc1ccc(Cl)cc1 [1-chloro-4-methylbenzene]

SMILES: CCOP(=S)(OCC)SCCSCC [disulfoton]
Henry solubility constant Hcp [3]: 0.045 | Henry solubility constant Hcp (reference: Muir et al. (2004)): 11

SMILES: OCCO [1,2-ethanediol]
Henry solubility constant Hcp [4]: 6500 | Henry solubility constant Hcp [5]: 6500

Henry solubility constant Hcp (reference: Muir et al. (2004)): 4.4
SMILES: COC(=O)c1c(Cl)c(Cl)c(C(=O)OC)c(Cl)c1Cl [dacthal]

SMILES: C=CCO [2-propen-1-ol]
Henry solubility constant Hcp (reference: Goldstein (1982)): 4.3 | Henry solubility constant Hcp [6]: 2

Henry solubility constant Hcp (reference: Brockbank (2013)): 1.2
SMILES: Cc1cccnc1 [3-methylpyridine]

SMILES: CCS [ethanethiol]
Henry solubility constant Hcp [4]: 0.0028 | Henry solubility constant Hcp [5]: 0.0028 | Henry solubility constant Hcp [7]: 0.0028 | Henry solubility constant Hcp [8]: 0.0028

Henry solubility constant Hcp (reference: Brockbank (2013)): 0.025 | Henry solubility constant Hcp [9]: 0.025
SMILES: CCCCCOC(C)=O [pentyl ethanoate]

Henry solubility constant Hcp (reference: Howard and Meylan (1997)): 15
SMILES: c1ccc2[nH]ccc2c1 [indole]

SMILES: COP(=S)(OC)Oc1ccc(Sc2ccc(OP(=S)(OC)OC)cc2)cc1 [temefos]
Henry solubility constant Hcp [3]: 1.7

Henry solubility constant Hcp (reference: Brockbank (2013)): 1.9e-06
SMILES: CC(C)CCC(C)(C)C [2,2,5-trimethylhexane]

SMILES: BrCBr [dibromomethane]
Henry solubility constant Hcp (reference: Brockbank (2013)): 0.012 | Henry solubility constant Hcp [5]: 0.012

SMILES: ClN(Cl)Cl [nitrogen trichloride]
Henry solubility constant Hcp [4]: 0.00099 | Henry solubility constant Hcp [5]: 0.00099 | Henry solubility constant Hcp [7]: 0.00099 | Henry solubility constant Hcp [8]: 0.00099

SMILES: [C-]#[O+] [carbon monoxide]
Henry solubility constant Hcp [4]: 9.7e-06 | Henry solubility constant Hcp [5]: 9.7e-06 | Henry solubility constant Hcp [7]: 9.7e-06 | Henry solubility constant Hcp [8]: 9.7e-06

Henry solubility constant Hcp (reference: Brockbank (2013)): 0.061 | Henry solubility constant Hcp [6]: 0.057
SMILES: COCOC [dimethoxymethane]

SMILES: CCOP(=S)(OCC)Oc1cc(C)nc(C(C)C)n1 [diazinon]
Henry solubility constant Hcp [3]: 0.15 | Henry solubility constant Hcp (reference: Muir et al. (2004)): 46 and 92

SMILES: Cc1ccccc1N [2-methylbenzenamine]
Henry solubility constant Hcp (reference: Brockbank (2013)): 4.8

Henry solubility constant Hcp (reference: Brockbank (2013)): 5.8e-05
SMILES: C1CCCC1 [cyclopentane]

Henry solubility constant Hcp (reference: Brockbank (2013)): 6.4e-06
SMILES: CCCC(C)C [2-methylpentane]

Henry solubility constant Hcp (reference: MacBean (2012b)): > 3700
SMILES: S=C([S-])NCCNC(=S)[S-].[Zn+2] [zineb]

SMILES: CN=C=S [methyl isothiocyanate]
Henry solubility constant Hcp [4]: 0.17 | Henry solubility constant Hcp [5]: 0.17 | Henry solubility constant Hcp [8]: 0.17

SMILES: [HH] [hydrogen]
Henry solubility constant Hcp (reference: Himmelblau (1960)): 7.8e-06 | Henry solubility constant Hcp (reference: Hine and Weimar (1965)): 7.7e-06 | Henry solubility constant Hcp (reference: Young (1981a)): 7.7e-06

SMILES: ClCCCCCl [1,4-dichlorobutane]
Henry solubility constant Hcp (reference: Brockbank (2013)): 0.02

Henry solubility constant Hcp (reference: Brockbank (2013)): 3.9
SMILES: CCOC(=O)CC(=O)OCC [propanedioic acid, diethyl ester]

Henry solubility constant Hcp (reference: Brockbank (2013)): 0.022
SMILES: CCCCOC(=O)CC [butyl propanoate]

SMILES: CNC(=O)Oc1cccc2c1OC(C)(C)C2 [carbofuran]
Henry solubility constant Hcp [3]: 19

SMILES: c1ccc2c(c1)oc1ccccc12 [dibenzofuran]
Henry solubility constant Hcp (reference: Brockbank (2013)): 0.074 | Henry solubility constant Hcp [1]: 0.091

SMILES: CC(=O)C(F)(F)F [1,1,1-trifluoro-2-propanone]
Henry solubility constant Hcp [4]: 1.4 | Henry solubility constant Hcp [5]: 1.4 | Henry solubility constant Hcp [8]: 1.4

Henry solubility constant Hcp (reference: Brockbank (2013)): 1.6e-05
SMILES: C[C@@H]1CCCC[C@H]1C (relative stereo) [trans-1,2-dimethylcyclohexane]

Henry solubility constant Hcp (reference: Brockbank (2013)): 0.017
SMILES: CCCCOC(=O)CCC [butyl butanoate]

Henry solubility constant Hcp (reference: Brockbank (2013)): 8.5e-05
SMILES: C#CCCCCCCC [1-nonyne]

Henry solubility constant Hcp (reference: Brockbank (2013)): 0.011
SMILES: CCCCCCCCC=O [nonanal]

SMILES: C=CC=O [propenal]
Henry solubility constant Hcp (reference: Brockbank (2013)): 0.072 | Henry solubility constant Hcp [10]: 0.081 | Henry solubility constant Hcp (reference: Goldstein (1982)): 0.1 | Henry solubility constant Hcp (reference: Howard (1989)): 2.2

SMILES: CC(=O)C(Cl)Cl [1,1-dichloro-2-propanone]
Henry solubility constant Hcp [4]: 0.33 | Henry solubility constant Hcp [5]: 0.33

Henry solubility constant Hcp (reference: Palmer et al. (1985)): > 4.1
SMILES: OI [hypoiodous acid]

SMILES: CCCCCCCC#N [octanenitrile]
Henry solubility constant Hcp (reference: Plyasunov et al. (2006)): 0.057

SMILES: CCOC(=O)C(F)(F)F [trifluoroethanoic acid, ethyl ester]
Henry solubility constant Hcp [4]: 0.00089 | Henry solubility constant Hcp [5]: 0.00089 | Henry solubility constant Hcp [8]: 0.00089

SMILES: O=[N+]([O-])c1ccccc1O [2-nitrophenol]
Henry solubility constant Hcp (reference: Goldstein (1982)): 0.69

SMILES: FC(F)(Cl)Cl [dichlorodifluoromethane]
Henry solubility constant Hcp (reference: Brockbank (2013)): 3.1e-05 | Henry solubility constant Hcp [4]: 3e-05 | Henry solubility constant Hcp [5]: 3e-05 | Henry solubility constant Hcp (reference: Goldstein (1982)): 3.5e-06 | Henry solubility constant Hcp [7]: 3e-05 | Henry solubility constant Hcp [8]: 3e-05

Henry solubility constant Hcp (reference: Brockbank (2013)): 0.026
SMILES: CCCCOC=O [butyl methanoate]

SMILES: ClC1C(Cl)C(Cl)C(Cl)C(Cl)C1Cl (stereo not drawn) [γ-1,2,3,4,5,6-hexachlorocyclohexane]
Henry solubility constant Hcp (reference: McCarty (1980)): 31 | Henry solubility constant Hcp (reference: Xiao et al. (2004)): 3.7 and 3.3

SMILES: CCCCI [1-iodobutane]
Henry solubility constant Hcp (reference: Brockbank (2013)): 0.00069

SMILES: Brc1ccc(Br)c(Br)c1 [1,2,4-tribromobenzene]
Henry solubility constant Hcp (reference: Kuramochi et al. (2004)): 0.029

Henry solubility constant Hcp [9]: 0.027
SMILES: CCCCC(=O)OCC [ethyl pentanoate]

Henry solubility constant Hcp [11]: 0.00056
SMILES: FC(F)(F)C(Cl)Br (stereo not drawn) [1-bromo-1-chloro-2,2,2-trifluoroethane]

SMILES: CCc1cccc(C)c1N(C(=O)CCl)C(C)COC (stereo not drawn) [metolachlor]
Henry solubility constant Hcp [3]: 11 | Henry solubility constant Hcp [11]: 620 | Henry solubility constant Hcp (reference: Muir et al. (2004)): 750 and 720 | Henry solubility constant Hcp (reference: Rice et al. (1997b)): 1200

SMILES: Brc1ccc(Oc2ccc(Br)cc2)cc1 [4,4'-dibromodiphenyl ether]
Henry solubility constant Hcp [2]: 0.24

Henry solubility constant Hcp (reference: Brockbank (2013)): 8.2
SMILES: Cc1ccc(C)c(O)c1 [1-hydroxy-2,5-dimethylbenzene]

SMILES: ClC1=C(Cl)[C@]2(Cl)[C@H]3[C@H]([C@@H]4C=C[C@H]3C4)[C@@]1(Cl)C2(Cl)Cl [aldrin]
Henry solubility constant Hcp [3]: 0.00011 | Henry solubility constant Hcp (reference: Meylan and Howard (1991)): 0.02

SMILES: c1ccccc1 [benzene]
Henry solubility constant Hcp (reference: Brockbank (2013)): 0.0018 | Henry solubility constant Hcp (reference: Goldstein (1982)): 0.0018

SMILES: CCCNCCC [dipropylamine]
Henry solubility constant Hcp (reference: Brockbank (2013)): 0.21 | Henry solubility constant Hcp [4]: 0.2 | Henry solubility constant Hcp [5]: 0.2

Henry solubility constant Hcp (reference: Brockbank (2013)): 0.0066
SMILES: CCCCOC [methyl butyl ether]

Henry solubility constant Hcp (reference: Brockbank (2013)): 0.43
SMILES: CCCCCN [1-pentanamine]

SMILES: Cc1ccccc1O [1-hydroxy-2-methylbenzene]
Henry solubility constant Hcp (reference: Brockbank (2013)): 6.7 | Henry solubility constant Hcp [10]: 8.2 | Henry solubility constant Hcp (reference: Howard (1989)): 6.2

Henry solubility constant Hcp [9]: 0.2
SMILES: CCC/C=C/C=O [(E)-2-hexenal]

SMILES: CCCCO[N+](=O)[O-] [1-butyl nitrate]
Henry solubility constant Hcp [4]: 0.01 | Henry solubility constant Hcp [5]: 0.01 | Henry solubility constant Hcp [7]: 0.01 | Henry solubility constant Hcp [8]: 0.01

Henry solubility constant Hcp (reference: Brockbank (2013)): 0.29
SMILES: COC(=O)c1ccccc1 [methyl benzoate]

Henry solubility constant Hcp (reference: Brockbank (2013)): 1.1
SMILES: CC(=O)c1ccccc1 [1-phenylethanone]

SMILES: CCc1ccccc1 [ethylbenzene]
Henry solubility constant Hcp (reference: Brockbank (2013)): 0.0013 | Henry solubility constant Hcp [11]: 0.0014 | Henry solubility constant Hcp (reference: Goldstein (1982)): 0.0016

Henry solubility constant Hcp (reference: Brockbank (2013)): 0.0002
SMILES: C1=CCCCCC1 [cycloheptene]

SMILES: O=NO [nitrous acid]
Henry solubility constant Hcp (reference: Schwartz and White (1981)): 0.48

Henry solubility constant Hcp (reference: Brockbank (2013)): 0.0004
SMILES: CCCCCCc1ccccc1 [hexylbenzene]

Henry solubility constant Hcp (reference: Brockbank (2013)): 0.0027
SMILES: Cc1ccc(Cl)cc1Cl [2,4-dichloro-1-methylbenzene]

SMILES: O=C(Nc1ccccc1-c1ccc(Cl)cc1)c1cccnc1Cl [boscalid]
Henry solubility constant Hcp (reference: MacBean (2012b)): 19000

Henry solubility constant Hcp (reference: Abraham (1984)): 0.35
SMILES: CCCCCCCCCCCCCCCCO [1-hexadecanol]

Henry solubility constant Hcp (reference: Clever (1979a)): 3.8e-06 | Henry solubility constant Hcp (reference: Himmelblau (1960)): 3.7e-06
SMILES: [He] [helium]

Henry solubility constant Hcp (reference: Brockbank (2013)): 0.02 | Henry solubility constant Hcp [11]: 0.022
SMILES: Cc1cccc2ccccc12 [1-methylnaphthalene]

Henry solubility constant Hcp (reference: Brockbank (2013)): 0.0074
SMILES: CC(C)COC(=O)C(C)C [2-methylpropyl 2-methylpropanoate]

Henry solubility constant Hcp [3]: 8.2
SMILES: CN(C)C(=O)Nc1ccc(Cl)c(Cl)c1 [diuron]

Henry solubility constant Hcp (reference: Brockbank (2013)): 5.7e-05
SMILES: CC=C(C)C [2-methyl-2-butene]

SMILES: ClC(Cl)C(Cl)Cl [1,1,2,2-tetrachloroethane]
Henry solubility constant Hcp (reference: Barr and Newsham (1987)): 0.018 | Henry solubility constant Hcp (reference: Brockbank (2013)): 0.024 | Henry solubility constant Hcp [4]: 0.023 | Henry solubility constant Hcp [5]: 0.023 | Henry solubility constant Hcp (reference: Goldstein (1982)): 0.023
